According to ChEMBL document CHEMBL1201862, “PubChem BioAssay data set” (2004):
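Interpolation was linear, between the two tested concentrations surrounding the appropriate level; five concentrations were tested over 48 hours in 96-well plates. GI50: concentration for 50% inhibition of growth.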 Active and inactive are the calls of the source. Cut-off read from the data, not from the text of the source: active = GI50 up to about 1.1 µM and inactive = higher. Non-standard residues stand in square brackets, D forms with d. Residues, ends and D or L forms follow the SMILES beside them. ξ: configuration not given here. *: point of attachment. NMeF = CN[C@@H](Cc1ccccc1)C(=O)O; NMeV = CN[C@H](C(=O)O)C(C)C; ξNMeV = CNC(C(=O)O)C(C)C; Boc = CC(C)(C)OC(=O)*; OBn = c1ccc(CO*)cc1

Key:
Experiment in all cases: NCI tumour cell line growth inhibition, 48 h
SNB-78 = test system: SNB-78
HCT-116 = test system: HCT-116
CAKI-1 = test system: CAKI-1
SF-295 = test system: SF-295
EKVX = test system: EKVX
SF-268 = test system: SF-268
OVCAR-4 = test system: OVCAR-4
KM12 = test system: KM12
NCI-H226 = test system: NCI-H226
ACHN = test system: ACHN
SR = test system: SR
A549 = test system: A549
SK-OV-3 = test system: SK-OV-3
A498 = test system: A498
HT-29 = test system: HT-29
NCI/ADR-RES = test system: NCI/ADR-RES

Measured: GI50

CC1(O)C=CC2CCC1C2O (centres undefined)
inactive: SNB-78 > 100 µM | HCT-116 19.7 µM | CAKI-1 > 100 µM | SF-295 > 100 µM | EKVX > 100 µM | SF-268 29.3 µM | OVCAR-4 > 100 µM | KM12 > 100 µM | NCI-H226 > 100 µM | ACHN > 100 µM | SR 23.7 µM | A549 68.9 µM | SK-OV-3 > 100 µM | A498 > 100 µM | HT-29 > 100 µM

O=[N+]([O-])c1ccc(C2SCc3nc4ccccc4n32)cc1 (centres undefined)
inactive: SNB-78 > 100 µM | CAKI-1 61.4 µM | SF-295 32.6 µM | EKVX 44.3 µM | SF-268 > 100 µM | OVCAR-4 76.9 µM | KM12 73.3 µM | NCI-H226 29.2 µM | ACHN 47.8 µM | SR 53.6 µM | A549 50.4 µM | SK-OV-3 92.9 µM | A498 88.3 µM | HT-29 > 100 µM

C=CCC12CC(=O)CCC1CC(=O)C2 (centres undefined)
inactive: SNB-78 > 100 µM | HCT-116 > 100 µM | CAKI-1 > 100 µM | SF-268 > 100 µM | OVCAR-4 > 100 µM | KM12 > 100 µM | NCI-H226 > 100 µM | ACHN > 100 µM | SR > 100 µM | A549 > 100 µM | SK-OV-3 > 100 µM | A498 > 100 µM

COc1ccc(C(=O)C(C(=O)CCC(=O)Nc2cccc(C(F)(F)F)c2)c2ccccc2)cc1 (centres undefined)
inactive: SNB-78 > 100 µM | HCT-116 80.7 µM | CAKI-1 > 100 µM | SF-295 93.5 µM | EKVX > 100 µM | SF-268 > 100 µM | OVCAR-4 37.7 µM | KM12 > 100 µM | NCI-H226 > 100 µM | ACHN 80.7 µM | SR 62.7 µM | A549 65.9 µM | SK-OV-3 > 100 µM | A498 > 100 µM | HT-29 65.6 µM

C[C@H](NC(=O)OC1C2C=CC(O)C1CC2)c1ccccc1 (some centres undefined)
inactive: SNB-78 > 100 µM | HCT-116 > 100 µM | CAKI-1 > 100 µM | SF-295 > 100 µM | EKVX > 100 µM | SF-268 > 100 µM | OVCAR-4 > 100 µM | KM12 > 100 µM | NCI-H226 > 100 µM | ACHN > 100 µM | SR 21.4 µM | A549 > 100 µM | SK-OV-3 > 100 µM | A498 > 100 µM | HT-29 > 10 µM

O=NN(CCCl)C(=O)N[C@H]1CC[C@@H](CC(=O)O)CC1
inactive: SNB-78 > 100 µM | HCT-116 > 100 µM | CAKI-1 > 100 µM | NCI/ADR-RES > 100 µM | SF-295 67.5 µM | EKVX > 100 µM | SF-268 33 µM | OVCAR-4 > 100 µM | KM12 > 100 µM | NCI-H226 > 100 µM | A549 > 100 µM | SK-OV-3 > 100 µM | A498 > 100 µM | HT-29 > 100 µM

O=C(c1ccccc1)c1ccc2cccc(OC3OC(CO)C(O)C(O)C3O)c2n1 (centres undefined)
inactive: SNB-78 > 100 µM | HCT-116 > 100 µM | CAKI-1 > 100 µM | SF-295 51.5 µM | EKVX > 100 µM | SF-268 > 100 µM | OVCAR-4 > 100 µM | KM12 > 100 µM | NCI-H226 > 100 µM | ACHN > 100 µM | SR > 100 µM | A549 > 100 µM | A498 26.8 µM | HT-29 > 100 µM

CC1OC(OCC2OC(Oc3c(-c4ccc(O)cc4)oc4cc(O)cc(O)c4c3=O)C(OC3OC(C)C(O)C(O)C3O)C(O)C2O)C(O)C(O)C1O (centres undefined)
inactive: SNB-78 > 100 µM | HCT-116 > 100 µM | CAKI-1 > 100 µM | SF-295 > 100 µM | EKVX > 100 µM | SF-268 > 100 µM | OVCAR-4 > 54.8 µM | KM12 > 100 µM | NCI-H226 > 100 µM | ACHN > 67.6 µM | SR > 100 µM | A549 > 100 µM | SK-OV-3 > 100 µM | A498 > 100 µM | HT-29 > 100 µM

CC(C)C(C(=O)N(C)[C@H](C(=O)N1CCC[C@H]1C(=O)N(C)[C@@H](Cc1ccccc1)C(=O)OCc1ccccc1)C(C)C)N(C)C(=O)[C@@H](NC(=O)OC(C)(C)C)C(C)C (some centres undefined) (Boc-V[ξNMeV][NMeV]P[NMeF]-OBn)
inactive: SNB-78 > 31.6 µM | HCT-116 10.8 µM | CAKI-1 > 31.6 µM | SF-295 19.8 µM | EKVX > 31.6 µM | SF-268 > 31.6 µM | OVCAR-4 > 29.5 µM | KM12 > 10 µM | NCI-H226 > 63.5 µM | ACHN > 57.4 µM | SR 7.36 µM | A549 18.7 µM | SK-OV-3 > 31.6 µM | A498 19.5 µM | HT-29 14.2 µM
